Legend:
[1] = Middle ear histology, one-month acute ototoxicity study; assay type: in vivo, guinea pig; conditions: at termination; Composition A 2% and 6% single IT-ANT; drops twice daily for 7 days; gentamicin single IT-ANT
Procedure: (§1) At termination, functional and anatomic assessments of the middle and inner ear compartments were conducted.
Histological analysis of middle ear paraffin sections was conducted at termination.
Middle ear histology—Guinea pigs received vascular perfusion through the heart with an isotonic saline solution followed by fixative containing 4% paraformaldehyde (PFA) in phosphate buffer. Left and right temporal bones were removed and trimmed. Left ear cochleae were designated for inner ear assessment and the right ear cochleae for middle ear histology. Cochleae of the left ear were fixed by intrascalar perfusion of 4% PFA. The temporal bones were then placed in 4% PFA for approximately 1 hour and transferred to a vial containing 0.5% PFA in phosphate buffer. The right temporal bones were trimmed, and then each was placed in a cassette containing 5% EDTA in phosphate buffer. The cassettes were placed into a PELCO 3451 Microwave System, running constantly for 3-5 days. Ears were then dehydrated in EtOH and processed in JB-4 Glycol Methacrylate resin, placed into molds containing the resin and polymerized at ˜4° C. for ˜12 h. Blocks containing temporal bones were trimmed and 5 μm sections were cut with a Leica RM2165 Microtome and stained with Paragon stain. Sections were examined under bright field optics. Middle ear sections were assessed for tissue reaction and inflammatory response. […]

[2] = test system: inner and outer hair cells; experiment: Inner ear cytocochleogram, one-month acute ototoxicity study; assay type: in vivo, guinea pig; conditions: at termination; 2% and 6% single IT-ANT; drops twice daily for 7 days; gentamicin single IT-ANT
Procedure: as §1
Inner ear cytocochleogram—The left ear cochleae were carefully removed from the temporal bones and then further dissected, first removing the bony otic capsule, followed by removal of lateral wall tissues, including spiral ligament and stria vascularis. The tectorial membrane was then removed and the cochleae placed in a solution of rhodamine labeled phalloidin, diluted 1:100 in phosphate buffered saline (PBS), for 30-120 min, in the dark, followed by two washes in PBS. The cochlear sensory neural epithelium was then dissected away from the modiolus, starting at the apex, to produce surface preparations of the cochlear spiral. Each segment was mapped for location and placed on a slide. A quantitative assessment of presence or absence of hair cells was then carried out, beginning at apex and proceeding to the base, to produce a cytocochleogram, with presence or absence or hair cells mapped by position along the cochlear spiral.

gentamicin
middle ear histology finding [1]: moderate chronic inflammation
hair cell loss (cytocochleogram) [2]: profound to complete hair cell loss

Source: patent publication US9486405B2, “Methods for the treatment of pediatric otic disorders” (Otonomy, Inc., priority 2013, dated 2016)
